# Experimental data taken from US6683103B2, “Sulfonamides for treatment of endothelin-mediated disorders” (Texas Biotechnology Corporation, priority 1997, dated 2004).
# Legend:
# human ETA receptors = biological target: T1, human ETA receptors (Homo sapiens, UniProt P25101); assay: Binding Test #1: inhibition of 125I-ET-1 binding to ETA receptors (TE 671 cell membranes); conditions: Table 1; † incubation at 24° C.; read-out: ETA
# T1 construct: endogenous in cells; host or cells: TE 671 cells (ATCC HTB 139)
# T1 sequence (P25101 21-427): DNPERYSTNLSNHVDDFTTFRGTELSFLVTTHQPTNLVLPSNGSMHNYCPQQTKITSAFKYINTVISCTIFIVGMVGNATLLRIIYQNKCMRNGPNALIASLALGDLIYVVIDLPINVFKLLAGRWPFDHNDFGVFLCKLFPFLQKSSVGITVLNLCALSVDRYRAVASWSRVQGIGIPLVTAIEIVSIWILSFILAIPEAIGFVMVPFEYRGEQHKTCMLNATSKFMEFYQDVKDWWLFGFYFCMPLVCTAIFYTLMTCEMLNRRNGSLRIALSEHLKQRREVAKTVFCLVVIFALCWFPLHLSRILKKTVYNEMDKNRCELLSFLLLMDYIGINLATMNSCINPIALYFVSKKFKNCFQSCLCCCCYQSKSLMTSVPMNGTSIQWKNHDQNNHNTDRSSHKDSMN
# Outline: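 Radioligand competition in triplicate: ¹²⁵I-endothelin-1 displaced by test compound (1 nM–100 μM final) from ETA-bearing TE 671 cell membranes in HEPES pH 7.4 binding buffer with NaCl, MgCl2 and bacitracin. Incubation 16–18 h at 4 °C (or at 24 °C); 80 nM ET-1 defines nonspecific binding; pellet radioactivity gives percent inhibition.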
# Papp (Table 4) = assay type: in vitro ADME
# [1] = Oral half-life and peak plasma levels in rat; assay type: in vivo
# [2] = Stability of solutions, percent remaining by HPLC; assay type: physicochemical; conditions: 150 mg/mL; LABRASOL; 24 h
# [3] = test system: DOCA-salt hypertensive rat; assay: Deoxycorticosterone acetate (DOCA)-salt hypertensive rat model; assay type: in vivo
# Method: E. Deoxycorticosterone Acetate (DOCA)-Salt Hypertensive Rat Model for Assessing in vivo Activity of Selected Compounds
# Selected compounds disclosed herein have been tested for activity in the deoxycorticosterone acetate (DOCA)-salt hypertensive rat model. To perform these tests, silastic MDX4-4210 elastomer implants containing 47 mg (DOCA) were prepared according to the method of Ornmsbee et al. ((1973) the J. Pharm. Sci. 62:255-257). Briefly, DOCA is incorporated into silicon rubber implants for sustained release. To prepare the implants the DOCA is incorporated into unpolymerized silicone rubber, catalyst is added and the mixture is cast in a hemicylindrical shape.
# Sprague Dawley rats (7-8 weeks old) were unilaterally nephrectomized under ketamine anesthesia and a DOCA-implant was placed on the left lateral dorsal abdomen of the animal. The rats were allowed to recover for three weeks. During recovery they were permitted free access to normal rat chow and 0.9% NaCl drinking solution in place of drinking water. The rats develop hypertension within 3 weeks.
# All animals were used in the tests between 21 and 30 days post surgery. The mean arterial blood pressure in these animals ranged from 165-200 mm Hg.
# On the day of experimentation, catheters were inserted under brevital anesthesia into the right femoral artery for measurement of blood pressure, and into the right femoral vein for administration of a selected compound. The animals were placed in a restrainer and allowed to recover for a minimum of 60 min or until a steady mean arterial blood pressure was recorded. At that time, the selected compound or control vehicle was administered either intravenously, as a 60 minute infusion, or orally by oral gavage. Blood pressure was recorded continuously for a further 10 hrs.
Papp (Papp (Table 4)) [×10⁻⁶ cm/s],Peak Plasma Levels ([1]; in vivo) [µg/mL],POt½ in Rat ([1]; oral) [h],percent remaining (HPLC) [2] [%],SMILES,IC50 (human ETA receptors) [nM],effect on blood pressure [3]
2.32,173,4.1,90.1,"Cc1cc2c(cc1CC(=O)c1sccc1S(=O)(=O)Nc1onc(C)c1Cl)OCO2 [N-(4-chloro-3-methyl-5-isoxazolyl)-2-[2-methyl-4,5-(methylenedioxy)phenylacetyl]thiophene-3-sulfonamide]",3.2,–
–,–,–,–,"Cc1noc(NS(=O)(=O)c2ccsc2C(=O)Cc2ccc3c(c2)OCO3)c1Cl [N-(4-chloro-3-methyl-5-isoxazolyl)-2-[(3,4-(methylenedioxy)phenylacetyl]thiophene-3-sulfonamide]",21,effective in decreasing blood pressure
